Data from patent US20240279283A1, “CYCLIC PEPTIDE ANTIBIOTICS” (priority 2021, published 2024).
Bridge positions count the residues as written; N and C are the ends. Square brackets hold non-standard residues; d marks the D form. Peptide text beside a SMILES is read from it. 1Nal = N[C@@H](Cc1cccc2ccccc12)C(=O)O; His(π-Me) = Cn1cncc1C[C@H](N)C(=O)O; NMeY = CN[C@@H](Cc1ccc(O)cc1)C(=O)O; Abu = CC[C@H](N)C(=O)O; Aib = CC(C)(N)C(=O)O

Assays:
Type in all cases: cell-based
Details in all cases: LB broth, 5×10^5 CFU/ml, 37° C., 18 hours, scored by eye
E. coli 25922 = experiment: Minimum Inhibitory Concentration (MIC) determination, E. coli 25922; design: unit not given here
Experimental: (§1) MICs were determined by performing two-fold serial dilutions of peptides in LB broth to a final volume of 0.1 ml in round-bottom 96-well assay plates (Corning Life Sciences No 3788). Peptides were initially resuspended in 100% DMSO to 10 mM and subsequently diluted in LB medium to the appropriate concentration. Each well was inoculated with 5×10^5 CFU/ml of the screening stain and incubated at 37° C. without agitation for 18 hours. Plates were scored by eye, and the lowest compound concentration preventing visible growth was determined to be the MIC.

E. cloacae ATCC222 = experiment: Minimum Inhibitory Concentration (MIC) determination, E. cloacae ATCC222; design: unit not given here
Experimental: as §1

K. pneumoniae ATCC43816 = experiment: Minimum Inhibitory Concentration (MIC) determination, K. pneumoniae ATCC43816; design: unit not given here
Experimental: as §1

E. coli BW25113 = experiment: Minimum Inhibitory Concentration (MIC) determination, E. coli BW25113; design: unit not given here
How it was run: (§2)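 Peptides, diluted two-fold in LB broth from 10 mM DMSO stocks, were inoculated with 5×10^5 CFU/ml of each strain. Incubation was 18 h at 37 °C without shaking. MIC is the lowest concentration preventing visible growth, scored by eye.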

E. coli 25922 IMP = experiment: Minimum Inhibitory Concentration (MIC) determination, E. coli 25922 IMP
How it was run: as §2

Row | Structure (SMILES) | MIC E. coli 25922 WUXI::MIC (E. coli 25922) | MIC E. cloacae ATCC222 WUXI::MIC (E. cloacae ATCC222) | MIC K. pneumoniae ATCC43816 Wuxi::MIC (K. pneumoniae ATCC43816) | MIC E. coli BW25113 WUXI::MIC (E. coli BW25113) | MIC E. coli 25922 IMP WUXI::MIC (E. coli 25922 IMP)
1 | CC[C@@H]1NC(=O)[C@H](Cc2ccccc2)NC(=O)CSC[C@@H](C(=O)NCC(N)=O)NC(=O)[C@H](Cc2cncn2C)NC(=O)[C@H](CCCNC(=N)N)NC(=O)[C@H](C)NC(=O)[C@H](Cc2ccc(O)cc2)N(C)C(=O)[C@H](CCCNC(=N)N)NC(=O)[C@H](CO)NC(=O)CNC(=O)[C@H](Cc2c[nH]cn2)NC(=O)[C@H](Cc2cccc3ccccc23)NC1=O [Compound 37] ({CH2CO}-F[Abu][1Nal]HGSR[NMeY]AR[His(π-Me)]CG-NH2; thioether N-12) | 100 | 100 | 100 | 100 | 25
2 | CC[C@@H]1NC(=O)[C@H](CO)NC(=O)CSC[C@@H](C(=O)NCC(N)=O)NC(=O)[C@H](Cc2cncn2C)NC(=O)[C@H](CCCNC(=N)N)NC(=O)[C@H](Cc2c[nH]cn2)NC(=O)[C@H](Cc2ccc(O)cc2)N(C)C(=O)[C@H](CCCNC(=N)N)NC(=O)[C@H](CO)NC(=O)CNC(=O)[C@H](Cc2c[nH]cn2)NC(=O)[C@H](Cc2cccc3ccccc23)NC1=O [Compound 21, (3R,6S,9S,12S,15S,18S,21S,27S,30S, 33S,36S)-N-(2-amino-2-oxo-ethyl)-33-ethyl-9,18-bis(3-guanidinopropyl)-21,36-bis(hydroxymethyl)-15-[(4-hydroxyphenyl)methyl]-12,27-bis(1H-imidazol-4-ylmethyl)-16-methyl-6-[(3-methylimidazol-4-yl)methyl]-30-(1-naphthylmethyl)-5,8,11,14,17,20,23,26,29,32,35,38-dodecaoxo-1-thia-4,7,10,13,16,19,22,25,28,31,34,37-dodecazacyclononatriacontane-3-carboxamide] ({CH2CO}-S[Abu][1Nal]HGSR[NMeY]HR[His(π-Me)]CG-NH2; thioether N-12) | 50 | 3.1 | 25 | 50 | 0.063
3 | CC[C@@H](C)[C@H]1NC(=O)[C@@H](Cc2ccccc2)NC(=O)CSC[C@H](C(=O)NCC(N)=O)NC(=O)[C@@H](Cc2cncn2C)NC(=O)[C@@H](CCCNC(=N)N)NC(=O)[C@@H](Cc2cnc[nH]2)NC(=O)[C@@H](Cc2ccc(O)cc2)N(C)C(=O)[C@@H](CCCNC(=N)N)NC(=O)[C@@H](CO)NC(=O)CNC(=O)[C@@H](Cc2cnc[nH]2)NC(=O)[C@@H](Cc2cccc3ccccc23)NC1=O (mixture of isomers) [Compound 18] | 9.65 | 0.78 | 19 | 19 | 0.00585
4 | CC[C@H](C)[C@@H]1NC(=O)[C@H]([C@@H](C)O)NC(=O)[C@H](Cc2cncn2C)NC(=O)[C@H](Cc2ccccc2)NC(=O)CSC[C@@H](C(=O)NCC(N)=O)NC(=O)[C@H](Cc2ccc(O)cc2)NC(=O)[C@H](Cc2c[nH]c3ccccc23)NC(=O)[C@H](Cc2ccc(O)cc2)NC(=O)[C@H](Cc2cncn2C)NC(=O)[C@H](Cc2ccccc2)NC(=O)C(C)(C)NC(=O)[C@H](CCCNC(=N)N)NC(=O)[C@H](CCCCN)NC(=O)[C@H](CCCNC(=N)N)NC1=O [Compound 51] ({CH2CO}-F[His(π-Me)]TIRKR[Aib]F[His(π-Me)]YWYCG-NH2; thioether N-14) | 8 | >32 | >32 | 8 | 0.5
